Measurements published in PMC4467398, “Preclinical antitumor activity of ST7612AA1: a new oral thiol-based histone deacetylase (HDAC) inhibitor” (Oncotarget, 2014).

System: DOHH2 and TMD8 DLBCL cells
Experiment: Gene Set Enrichment Analysis (GSEA) of gene expression profiles, ST7612AA1 300 nM 8 hrs
Type: cell-based, human
[1] = C2.CP.CGP, down-regulated genes
[2] = C2.CP.KEGG, down-regulated genes
[3] = C2.CP.REACTOME, down-regulated genes
[4] = GSEA.C2.CP.BIOCARTA, up-regulated genes
[5] = GSEA.C2.CP.CGP, up-regulated genes
[6] = GSEA.C2.CP.KEGG, up-regulated genes
[7] = GSEA.C2.CP.REACTOME, up-regulated genes
[8] = GSEA.C3.TFT, in both sheets (down- and up-regulated)
[9] = SignatureDB, down-regulated genes
[10] = SignatureDB, up-regulated genes

CC(=O)SCCCCC[C@H](NC(=O)[C@H]1CCC(=O)N1)C(=O)Nc1ccccc1 [ST7612AA1]
NES GARY_CD5_TARGETS_DN [1]: -2.075 | NES HELLER_HDAC_TARGETS_DN [1]: -2.119 | NES MANALO_HYPOXIA_DN [1]: -2.295 | NES PEART_HDAC_PROLIFERATION_CLUSTER_DN [1]: -2.218 | NES PENG_GLUTAMINE_DEPRIVATION_DN [1]: -2.059 | NES SCHLOSSER_MYC_TARGETS_AND_SERUM_RESPONSE_DN [1]: -2.302 | NES SCHLOSSER_MYC_TARGETS_AND_SERUM_RESPONSE_UP [1]: -2.093 | NES SCHLOSSER_MYC_TARGETS_REPRESSED_BY_SERUM [1]: -2.287 | NES SCHUHMACHER_MYC_TARGETS_UP [1]: -2.188 | NES ZHONG_RESPONSE_TO_AZACITIDINE_AND_TSA_DN [1]: -2.061 | NES KEGG_AMINOACYL_TRNA_BIOSYNTHESIS [2]: -2 | NES KEGG_BASE_EXCISION_REPAIR [2]: -1.385 | NES KEGG_CELL_CYCLE [2]: -1.433 | NES KEGG_N_GLYCAN_BIOSYNTHESIS [2]: -1.4288 | NES KEGG_ONE_CARBON_POOL_BY_FOLATE [2]: -1.545 | NES KEGG_PROTEASOME [2]: -1.717 | NES KEGG_PYRIMIDINE_METABOLISM [2]: -1.58 | NES KEGG_RENIN_ANGIOTENSIN_SYSTEM [2]: -1.474 | NES KEGG_RNA_DEGRADATION [2]: -1.656 | NES KEGG_SPLICEOSOME [2]: -1.947 | NES REACTOME_ASSEMBLY_OF_THE_PRE_REPLICATIVE_COMPLEX [3]: -1.875 | NES REACTOME_DEADENYLATION_DEPENDENT_MRNA_DECAY [3]: -1.915 | NES REACTOME_METABOLISM_OF_NON_CODING_RNA [3]: -2.068 | NES REACTOME_METABOLISM_OF_RNA [3]: -1.941 | NES REACTOME_MITOCHONDRIAL_PROTEIN_IMPORT [3]: -1.944 | NES REACTOME_MRNA_PROCESSING [3]: -1.945 | NES REACTOME_MRNA_SPLICING [3]: -2.002 | NES REACTOME_PROCESSING_OF_CAPPED_INTRON_CONTAINING_PRE_MRNA [3]: -2.059 | NES REACTOME_REGULATION_OF_MITOTIC_CELL_CYCLE [3]: -1.812 | NES REACTOME_TRNA_AMINOACYLATION [3]: -1.958 | NES BIOCARTA_ARAP_PATHWAY [4]: 1.7296 | NES BIOCARTA_CCR5_PATHWAY [4]: 1.628 | NES BIOCARTA_COMP_PATHWAY [4]: 1.713 | NES BERTUCCI_MEDULLARY_VS_DUCTAL_BREAST_CANCER_DN [5]: 2.239 | NES CHEN_LVAD_SUPPORT_OF_FAILING_HEART_UP [5]: 2.236 | NES DUTERTRE_ESTRADIOL_RESPONSE_24HR_DN [5]: 2.118 | NES GALINDO_IMMUNE_RESPONSE_TO_ENTEROTOXIN [5]: 2.132 | NES GAUSSMANN_MLL_AF4_FUSION_TARGETS_E_UP [5]: 2.11 | NES HELLER_HDAC_TARGETS_SILENCED_BY_METHYLATION_UP [5]: 2.6813 | NES HELLER_HDAC_TARGETS_UP [5]: 2.622 | NES KINSEY_TARGETS_OF_EWSR1_FLII_FUSION_DN [5]: 2.138 | NES PEART_HDAC_PROLIFERATION_CLUSTER_UP [5]: 2.166 | NES ZHONG_RESPONSE_TO_AZACITIDINE_AND_TSA_UP [5]: 2.29 | NES KEGG_ASTHMA [6]: 1.8598 | NES KEGG_AXON_GUIDANCE [6]: 1.813 | NES KEGG_CELL_ADHESION_MOLECULES_CAMS [6]: 1.93 | NES KEGG_ENDOCYTOSIS [6]: 1.748 | NES KEGG_EPITHELIAL_CELL_SIGNALING_IN_HELICOBACTER_PYLORI_INFECTION [6]: 1.747 | NES KEGG_FOCAL_ADHESION [6]: 1.8042 | NES KEGG_LEUKOCYTE_TRANSENDOTHELIAL_MIGRATION [6]: 1.726 | NES KEGG_LYSOSOME [6]: 1.886 | NES KEGG_SYSTEMIC_LUPUS_ERYTHEMATOSUS [6]: 2.269 | NES KEGG_VIBRIO_CHOLERAE_INFECTION [6]: 1.733 | NES REACTOME_AMYLOIDS [7]: 2.248 | NES REACTOME_CELL_CELL_JUNCTION_ORGANIZATION [7]: 1.864 | NES REACTOME_DEPOSITION_OF_NEW_CENPA_CONTAINING_NUCLEOSOMES_AT_THE_CENTROMERE [7]: 1.861 | NES REACTOME_MEIOSIS [7]: 1.9137 | NES REACTOME_MEIOTIC_RECOMBINATION [7]: 2.082 | NES REACTOME_MEIOTIC_SYNAPSIS [7]: 1.86 | NES REACTOME_PACKAGING_OF_TELOMERE_ENDS [7]: 2.135 | NES REACTOME_RNA_POL_I_PROMOTER_OPENING [7]: 2.137 | NES REACTOME_RNA_POL_I_TRANSCRIPTION [7]: 1.892 | NES REACTOME_TELOMERE_MAINTENANCE [7]: 1.906 | NES TTTNNANAGCYR_UNKNOWN [8]: 1.939 | NES V$CEBP_Q2 [8]: 1.715 | NES V$CEBP_Q2_01 [8]: 1.7492 | NES V$CREBP1_01 [8]: 1.784 | NES V$E4BP4_01 [8]: 1.766 | NES V$GATA_Q6 [8]: 1.724 | NES V$HLF_01 [8]: 1.724 | NES V$MYOGENIN_Q6 [8]: 1.714 | NES V$OCT1_B [8]: 1.782 | NES […]_UNKNOWN [8]: 2.04 | NES CSR_EARLY_UP.V1_UP (GSEA.C6, down-regulated genes): -1.379 | NES EIF4E_UP (GSEA.C6, down-regulated genes): -1.468 | NES ERB2_UP.V1_DN (GSEA.C6, down-regulated genes): -1.443 | NES ESC_J1_UP_LATE.V1_DN (GSEA.C6, down-regulated genes): -1.204 | NES GCNP_SHH_UP_EARLY.V1_UP (GSEA.C6, down-regulated genes): -1.491 | NES GCNP_SHH_UP_LATE.V1_UP (GSEA.C6, down-regulated genes): -1.454 | NES MEK_UP.V1_DN (GSEA.C6, down-regulated genes): -1.169 | NES MYC_UP.V1_UP (GSEA.C6, down-regulated genes): -2.19 | NES VEGF_A_UP.V1_DN (GSEA.C6, down-regulated genes): -1.363 | NES BCAT.100_UP.V1_UP (GSEA.C6, up-regulated genes): 1.912 | NES CAHOY_NEURONAL (GSEA.C6, up-regulated genes): 1.833 | NES E2F3_UP.V1_UP (GSEA.C6, up-regulated genes): 1.833 | NES ERB2_UP.V1_UP (GSEA.C6, up-regulated genes): 2.065 | NES ESC_V6.5_UP_LATE.V1_UP (GSEA.C6, up-regulated genes): 1.857 | NES MEK_UP.V1_UP (GSEA.C6, up-regulated genes): 2.011 | NES P53_DN.V1_UP (GSEA.C6, up-regulated genes): 1.814 | NES RAF_UP.V1_UP (GSEA.C6, up-regulated genes): 1.891 | NES STK33_SKM_UP (GSEA.C6, up-regulated genes): 1.998 | NES STK33_UP (GSEA.C6, up-regulated genes): 1.832 | NES BLOOD_MODULE-3.7_UNDETERMINED [9]: -2.014 | NES GLUTAMINE_STARVE_DOWN [9]: -2.082 | NES HIF1ALPHA_1.5X_DOWN [9]: -2.057 | NES MYC_CHIP_PET_EXPR_UP [9]: -2.152 | NES MYC_OVEREXPRESSION_1.5X_UP [9]: -2.439 | NES MYC_OVEREXPRESSION_2X_UP [9]: -2.047 | NES MYELOMA_TACI_LOW_PLASMABLAST_GENE [9]: -1.944 | NES NOTCH_T-ALL_UP_PALOMERO [9]: -2.039 | NES PROLIFERATION_NODE1640 [9]: -2.024 | NES RAPAMYCIN_BJAB_DOWN [9]: -1.887 | NES BLOOD_MODULE-1.2_PLATELETS [10]: 0.6607 | NES BLOOD_MODULE-3.2_INFLAMMATION-1 [10]: 0.6587 | NES CNS_PNS_NODE1663 [10]: 0.6849 | NES HIF1ALPHA_1.5X_UP [10]: 0.6544 | NES HRAS_OVEREXPRESSION_4X_UP [10]: 0.6606 | NES JAK2_DOWNREGULATED_PMBL [10]: 0.6252 | NES KRAS_UP [10]: 0.6774 | NES NORMAL_MESENCHYMAL-1_NODE1643 [10]: 0.6887 | NES RETICULOCYTE_LARGE [10]: 0.7092 | NES SERUM_RESPONSE_FB_DOWN [10]: 0.6176
